In US20160362416A1, “ANTIVIRAL COMPOUNDS” (Gilead Sciences, Inc., priority 2012, published 2016):

Legend:
[1] = tested on: stable HCV 1b RLuc replicon cells (genotype 1b Con1 replicon); assay: HCV genotype 1b RLuc replicon reporter assay; assay type: cell-based; settings: Hepatitis C virus; stable genotype 1b Con1 RLuc replicon cells, 72 hours
Procedure, shortened: (§1)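 Stable 1b Con1 RLuc replicon cells, or Huh-Lunet cells transiently transfected with chimeric replicons (Con1 backbone carrying 3a S52 or 4a ED43 NS5A; JFH-1 backbone carrying 2b MD2b-1 NS5A, M31), treated with 3-fold dilutions for 72 h. Renilla luciferase read after lysis; EC50 by non-linear regression.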

[2] = tested on: stable HCV 1a RLuc replicon cells (genotype 1a H77 replicon); assay: HCV genotype 1a RLuc replicon reporter assay; assay type: cell-based; settings: Hepatitis C virus; stable genotype 1a H77 RLuc replicon cells, 72 hours
[3] = tested on: stable HCV 2a JFH-1 Rluc replicon cells (L31 present in NS5A); assay: HCV genotype 2a JFH-1 RLuc replicon reporter assay; assay type: cell-based; settings: Hepatitis C virus, 72 h, read-out: 2a JFH (nM)
[4] = tested on: NS5A chimeric genotype 2a JFH-1 replicon with genotype 2a J6 strain NS5A gene (M31); assay: HCV genotype 2a J6 NS5A chimeric replicon assay, transient (t); assay type: cell-based; settings: Hepatitis C virus, 72 h, read-out: 2a J6 (t) (nM)
[5] = tested on: NS5A chimeric genotype 2a JFH-1 replicon with genotype 2b MD2b-1 strain NS5A gene (M31); assay: HCV genotype 2b NS5A chimeric replicon assay, transient (t); assay type: cell-based; settings: Hepatitis C virus, 72 h, read-out: 2b (t) (nM)
Protocol: (§2) Evaluation of cell-based anti-HCV activity: Antiviral potency (EC50) was determined using a Renilla luciferase (RLuc)-based HCV replicon reporter assay. To perform the assay for genotype 1 and 2a JFH-1, stable HCV 1a RLuc replicon cells (harboring a dicistronic genotype 1a H77 replicon that encodes a RLuc reporter), stable HCV lb RLuc replicon cells (harboring a dicistronic genotype 1b Conl replicon that encodes a RLuc reporter), or stable HCV 2a JFH-1 Rluc replicon cells (harboring a dicistronic genotype 2a JFH-1 replicon that encodes a RLuc reporter; with L31 present in NS5A) were dispensed into 384-well plates for EC50 assays. To perform the assay for genotype 2a (with M31 present in NS5A) or 2b, NS5A chimeric genotype 2a JFH-1 replicons that encodes a RLuc-Neo reporter and either genotype 2a J6 strain NS5A gene or genotype 2b MD2b-1 strain NS5A gene (both with M31 present) respectively, were either transiently transfected (t) into Huh-Lunet cells or were established as stably replicating replicon cells (s) is provided. Either cells were dispensed into 384-well plates for EC50 assays. To perform the assay for genotype 3 and 4, NS5A chimeric genotype 1b Conl replicons that encodes a Pi-RLuc reporter and either genotype 3a S52 strain NS5A gene or genotype 4a ED43 strain NS5A gene respectively, were transiently transfected (t) into Huh-Lunet cells, which were subsequently dispensed into 384-well plates. Compounds were dissolved in DMSO at a concentration of 10 mM and diluted in DMSO either manually or using an automated pipeting instrument. Serially 3-fold diluted compounds were either manually mixed with cell culture media and added to the seeded cells or directly added to the cells using an automated instrument. DMSO was used as a negative (solvent; no inhibition) control, and the protease inhibitor ITMN-191 was included at a concentration >100×EC50 as a positive control. 72 hours later, cells were lysed and Renilla luciferase activity quantified as recommended by the manufacturer (Promega-Madison, Wis.). Non-linear regression was performed to calculate EC50 values.

[6] = tested on: NS5A chimeric genotype 2a JFH-1 replicon with genotype 2b MD2b-1 strain NS5A gene (M31); assay: HCV genotype 2b NS5A chimeric replicon assay, stable (s); assay type: cell-based; settings: Hepatitis C virus, 72 h, read-out: 2b (s) (nM)
[7] = tested on: NS5A chimeric genotype 1b Con1 replicon with genotype 3a S52 strain NS5A gene; assay: HCV genotype 3a NS5A chimeric replicon assay; assay type: cell-based; settings: Hepatitis C virus, 72 h, read-out: 3a (nM)
Procedure, shortened: as §1

[8] = tested on: NS5A chimeric genotype 1b Con1 replicon with genotype 4a ED43 strain NS5A gene; assay: HCV genotype 4a NS5A chimeric replicon assay; assay type: cell-based; settings: Hepatitis C virus, 72 h, read-out: 4a (s) (nM)
[9] = tested on: Q30R in genotype 1a NS5A replicon; assay: Resistance mutant replicon assay, genotype 1a NS5A Q30R; assay type: cell-based, HCV; settings: Hepatitis C virus, read-out: 1a Q30R (nM)
Protocol: as §2
(§3) To determine the antiviral potency (EC50) against resistance mutants, resistance mutations, including M28T, Q30R, Q30H, Q30E, L31M, Y93C, Y93H, and Y93N in genotype 1a NS5A, Y93H and L31V/Y93H in genotype 1b NS5A, and Y93H for in genotype 3a NS5A, were introduced individually into either 1a Pi-Rluc or 1b Pi-Rluc replicons by site directed mutagenesis. Replicon RNA of each resistant mutant was transiently transfected into Huh-7-derived cured-51 cells and antiviral potency was determined on these transfected cells as described above.

[10] = tested on: Q30E in genotype 1a NS5A replicon; assay: Resistance mutant replicon assay, genotype 1a NS5A Q30E; assay type: cell-based, HCV; settings: Hepatitis C virus, read-out: 1a Q30E (nM)
Protocol: as §2, §3

[11] = tested on: Y93H in genotype 1a NS5A replicon; assay: Resistance mutant replicon assay, genotype 1a NS5A Y93H; assay type: cell-based, HCV; settings: Hepatitis C virus, read-out: 1a Y93H (nM)
Procedure, shortened: (§4)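 Mutations introduced by site-directed mutagenesis into 1a or 1b Pi-RLuc replicons (3a Y93H in 1b Con1 chimera carrying 3a S52 NS5A), RNA transiently transfected into Huh-7-derived cured-51 cells. 3-fold compound dilutions; Renilla luciferase read after 72 h; EC50 by non-linear regression.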

[12] = tested on: Y93H in genotype 3a NS5A replicon; assay: Resistance mutant replicon assay, genotype 3a NS5A Y93H; assay type: cell-based, HCV; settings: Hepatitis C virus, read-out: 3a Y93H (nM)
Procedure, shortened: as §4

[13] = IV and PO single dose pharmacokinetic studies in SD rats; assay type: in vivo; settings: Sprague-Dawley, rat, plasma, male SD rats, IV infusion 1 mg/kg, oral gavage 2 mg/kg, read-out: Rat % F
Protocol: IV and PO Single Dose Pharmacokinetic Studies in SD Rats: The pharmacokinetics of selected compounds was characterized in male Sprague-Dawley (SD) rats (250-300 g). In this study, two groups of naïve purebred SD rats (N=3 per group, fasted over night) received the selected compound either as an intravenous (IV) infusion (1 mg/kg over 30 minutes) via the jugular vein or by oral gavage (2 mg/kg). The intravenous (IV) dosing vehicle was 5% ethanol, 35% polyethylene glycol 400 (PEG 400) and 60% water pH 2.0. The oral dosing vehicle was 5% ethanol, 55% PEG 400 and 40% citrate buffer pH 2.2.
Serial blood samples (approximately 0.3 mL each) were collected from jugular vein or other suitable vein at specified time points. For the IV infusion group, the blood samples were collected predose and at 0.25, 0.48, 0.58, 0.75, 1.5, 3, 6, 8, 12 and 24 hours after the start of infusion. For the oral group, the blood samples were collected predose and at 0.25, 0.50, 1, 2, 4, 6, 8, 12 and 24 hours after dosing. The blood samples were collected into Vacutainer™ tubes containing EDTA-K3 as the anti-coagulant and were centrifuged at approximately 4° C. to obtain plasma. The plasma samples were stored at −20° C. until analysis by LC/MS/MS.
A bioanalytical method utilizing high performance liquid chromatography coupled to tandem mass spectrometry (LC/MS/MS) was developed for analysis of the selected compound in rat plasma. Detection was performed using selected reaction monitoring (SRM); Ions representing the precursor (M+H)^+ species was selected in quadrupole 1 (Q1) and collided with argon gas in the collision cell (Q2) to generate specific product ion, which was subsequently monitored by quadrupole 3 (Q3). Standard curve and quality control samples were prepared in male rat plasma and processed in the same way as the test samples to generate quantitative data.
Pharmacokinetic parameters were generated using non-compartmental pharmacokinetic analysis (Phoenix WinNonlin, version 6.3). Values below the lower limit of quantification (LLOQ) were assigned a value of zero if predose and treated as missing thereafter. Area under the curve (AUC) was calculated using the linear trapezoidal rule. The oral bioavailability (% F) was determined by comparison of the area under the curve (AUC) of the compound and/or a metabolite generated in plasma following oral administration to that generated following intravenous administration.

[14] = tested on: Y93N in genotype 1a NS5A replicon; assay: Resistance mutant replicon assay, genotype 1a NS5A Y93N; assay type: cell-based, HCV; settings: Hepatitis C virus, read-out: 1a Y93N (nM)
Procedure, shortened: as §4

[15] = tested on: L31V/Y93H in genotype 1b NS5A replicon; assay: Resistance mutant replicon assay, genotype 1b NS5A L31V/Y93H; assay type: cell-based, HCV; settings: Hepatitis C virus, read-out: 1b L31V/Y93H (nM)
Protocol: as §2, §3

SMILES	EC50 [1] [nM]	EC50 [2] [nM]	EC50 [3] [nM]	EC50 [4] [nM]	EC50 [5] [nM]	EC50 [6] [nM]	EC50 [7] [nM]	EC50 [8] [nM]	EC50 [9] [nM]	EC50 [10] [nM]	EC50 [11] [nM]	EC50 [12] [nM]	bioavailability [13] [%]	EC50 [14] [nM]	EC50 [15] [nM]
COC(=O)N[C@H](C(=O)N1[C@@H](C)CC[C@H]1c1ncc(-c2ccc3c(c2)COc2cc4c(ccc5nc([C@@H]6CC[C@H](C)N6C(=O)[C@@H](NC(=O)OC)C6CCOCC6)[nH]c54)cc2-3)[nH]1)C1CCOCC1 [Comp 6, reference compound]	0.051	0.024	0.012	0.012	0.092	0.038	0.075	0.014	0.042	0.101	0.442	0.252	–	–	–
CC[C@H](C)[C@H](NC(=O)OC)C(=O)N1[C@H](c2ncc(-c3ccc4c(c3)COc3cc5c(ccc6nc([C@@H]7CC[C@H](C)N7C(=O)[C@@H](NC(=O)OC)C7CCOCC7)[nH]c65)cc3-4)[nH]2)C[C@@H]2CCC[C@@H]21 [Comp 9, reference compound]	0.034	0.028	–	–	–	–	–	40.9	0.26	–	3.5	40.9	0.571	10.6	–
COC(=O)N[C@H](C(=O)N1[C@@H](C)CC[C@H]1c1ncc(-c2ccc3c(c2)COc2cc4c(ccc5nc([C@@H]6C[C@@H]7CCC[C@@H]7N6C(=O)[C@@H](NC(=O)OC)C6CCOCC6)[nH]c54)cc2-3)[nH]1)C(C)C [Comp 10, reference compound]	0.024	0.015	–	0.024	–	–	–	21.8	0.123	0.716	–	21.8	–	3.74	0.024
